Columns and labels:
SK-HEP-1 = test: Cancer cell growth inhibition, SK-HEP-1; assay type: cell-based; conditions: Homo sapiens, SK-HEP1; SK-HEP-1, Liver Cancer, 72 h treatment
Procedure: (§1) Cell culture-based assays were used to evaluate the ability of compounds of the invention to inhibit cancer cell growth inhibition.
(§2) Cells were obtained from the American Type Culture Collection (ATCC). Cells were cultured at 37° C. with 5% CO2 in the appropriate growth medium (see table below), and harvested respectively during the logarithmic growth period and counted with hemocytometer. The cell viability was over 98% by trypan blue exclusion. Cell concentrations were adjusted between 5×10^4 and 2×10^5 cells/ml with respective medium.
(§3) Stock solutions of test compounds and positive drugs Doxorubicin (Zhejiang, Haizheng, China), Paclitaxel (Beijing, Xiehe, China), Vincristin (Shenzhen Wanle, China), 5-FU (Tianjin jinyaoanjisuan, China), Irinotecan (Jiangsu Hengrui, China) and Cisplatin Nanjing zhiyao, China) were prepared in dimethyl sulphoxide (DMSO) or PBS at 20 mM.
(§4) All treatments were performed in triplicate. 10 μl drug solution was added to each well and incubated for 72 hours. At the end of the incubation, 20 μl of the freshly prepared MTS/PMS mixture solution was added to each well and incubated for 4 hours at 37° C. in a humidified, 5% CO2 atmosphere. Absorbance was read at 490 nm using SpectraMAX Plus microplate spectrophotometer. […] In order to calculate IC50, a dose-responsive curve was fitted using nonlinear regression model with a sigmoidal dose response.

BT474 = test: Cancer cell growth inhibition, BT474; assay type: cell-based; conditions: Homo sapiens, BT-474; BT474, Breast Cancer, 72 h treatment
Procedure: as §1, §2, §3, §4

MCF-7-FL = test: Cancer cell growth inhibition, MCF-7-FL; assay type: cell-based; conditions: Homo sapiens, Breast Cancer, 72 h treatment
Procedure: as §1, §2, §3, §4

HT-1080 = test: Cancer cell growth inhibition, HT-1080; assay type: cell-based; conditions: Homo sapiens; HT-1080, Fibrosarcoma, 72 h treatment
Procedure: as §1, §2, §3, §4

143b = test: Cancer cell growth inhibition, 143b; assay type: cell-based; conditions: Homo sapiens, Osteosarcoma, 72 h treatment
Procedure: as §1, §2, §3, §4

HepG2 = test: Cancer cell growth inhibition, HepG2; assay type: cell-based, human; conditions: HepG2, Liver Cancer, 72 h treatment
Procedure: as §1, §2, §3, §4

MIAPACA-2 = test: Cancer cell growth inhibition, MIAPACA-2; assay type: cell-based, human; conditions: MIAPACA-2, Pancreatic Cancer, 72 h treatment
Procedure: as §1, §2, §3, §4

HCT-116 = test: Cancer cell growth inhibition, HCT-116; assay type: cell-based, human; conditions: HCT-116, Colorectal Cancer, 72 h treatment
Procedure: as §1, §2, §3, §4

Human HDAC6 = Human HDAC6 (Homo sapiens (Human), UniProt Q9UBN7); test: HDAC6 fluorogenic peptide deacetylation assay; assay type: biochemical; conditions: human HDAC6, 50 μM substrate, 30° C., 2 h; read-out: IC50 (nM) of enzyme activity HDAC6
Human HDAC8 = Human HDAC8 (Homo sapiens (Human), UniProt Q9BY41); test: HDAC8 fluorogenic peptide deacetylation assay; assay type: biochemical; conditions: human HDAC8, 50 μM substrate, 30° C., 2 h; read-out: IC50 (nM) of enzyme activity HDAC8
Human HDAC3/NcoR2 = Human HDAC3/NcoR2 (Homo sapiens (Human), UniProt O15379); test: HDAC3 fluorogenic peptide deacetylation assay; assay type: biochemical; conditions: human HDAC3/NcoR2, 50 μM substrate, 30° C., 2 h; read-out: IC50 (nM) of enzyme activity HDAC3
[1] = test system: Nuclear Extract from HeLa Cells; test: HeLa Nuclear Extract HDAC assay; assay type: biochemical, human; conditions: 50 μM substrate, 30° C., 2 h, read-out: IC50 (nM) of enzyme activity HeLa
Human HDAC2 = Human HDAC2 (Homo sapiens (Human), UniProt Q92769); test: HDAC2 fluorogenic peptide deacetylation assay; assay type: biochemical; conditions: human HDAC2, 50 μM substrate, 30° C., 2 h; read-out: IC50 (nM) of enzyme activity HDAC2
[2] = biological target: histone deacetylase from rat liver; test: Rat liver HDAC assay; assay type: biochemical; conditions: Boc-Lys(Ac)-AMC substrate, 30° C., 2 h, read-out: IC50 (nM) of enzyme activity Rat liver
Human HDAC1 = Human HDAC1 (Homo sapiens (Human), UniProt Q13547); test: HDAC1 fluorogenic peptide deacetylation assay; assay type: biochemical; conditions: human HDAC1, 50 μM substrate, 30° C., 2 h; read-out: IC50 (nM) of enzyme activity HDAC1
Colo205 = test: Cancer cell growth inhibition, Colo205; assay type: cell-based; conditions: Homo sapiens, COLO 205; Colo205, Colorectal Cancer, 72 h treatment
Procedure: as §1, §2, §3, §4

MCF-7-218 = test: Cancer cell growth inhibition, MCF-7-218; assay type: cell-based; conditions: Homo sapiens; MCF-7-218, Breast Cancer, 72 h treatment
Procedure: as §1, §2, §3, §4

Chain of Human HDAC3/NcoR2 (O15379 whole entry): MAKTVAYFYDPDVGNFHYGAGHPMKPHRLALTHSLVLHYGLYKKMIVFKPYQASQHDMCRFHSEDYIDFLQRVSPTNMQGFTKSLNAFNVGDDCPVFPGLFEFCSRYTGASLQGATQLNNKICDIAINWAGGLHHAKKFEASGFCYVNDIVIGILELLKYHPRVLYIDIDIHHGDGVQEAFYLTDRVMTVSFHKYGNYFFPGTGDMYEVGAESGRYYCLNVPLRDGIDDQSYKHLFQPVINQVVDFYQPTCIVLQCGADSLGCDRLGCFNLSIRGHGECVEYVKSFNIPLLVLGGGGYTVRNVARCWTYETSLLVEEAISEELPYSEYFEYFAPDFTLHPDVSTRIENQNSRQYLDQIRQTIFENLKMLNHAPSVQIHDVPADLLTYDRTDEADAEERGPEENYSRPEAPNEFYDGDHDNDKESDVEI
Chain of Human HDAC3/NcoR2 (Q9Y618 395-489 partner): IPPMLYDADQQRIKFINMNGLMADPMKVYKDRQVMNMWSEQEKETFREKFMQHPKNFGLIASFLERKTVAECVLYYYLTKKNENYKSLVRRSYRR
Chain of Human HDAC2 (Q92769 whole entry): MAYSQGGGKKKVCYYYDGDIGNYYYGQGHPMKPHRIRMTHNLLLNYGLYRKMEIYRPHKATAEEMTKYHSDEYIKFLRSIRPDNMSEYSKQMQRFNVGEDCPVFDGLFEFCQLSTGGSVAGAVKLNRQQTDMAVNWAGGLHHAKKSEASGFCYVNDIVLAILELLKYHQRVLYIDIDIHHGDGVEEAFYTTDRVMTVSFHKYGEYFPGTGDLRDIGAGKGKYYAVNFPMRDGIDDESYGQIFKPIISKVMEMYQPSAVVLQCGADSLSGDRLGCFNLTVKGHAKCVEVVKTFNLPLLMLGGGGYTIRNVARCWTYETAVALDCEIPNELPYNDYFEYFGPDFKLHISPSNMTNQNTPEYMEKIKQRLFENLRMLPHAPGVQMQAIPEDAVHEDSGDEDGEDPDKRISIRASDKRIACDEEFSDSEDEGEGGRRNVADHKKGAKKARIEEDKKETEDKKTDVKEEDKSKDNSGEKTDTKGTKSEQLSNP
Chain of Human HDAC1 (Q13547 whole entry): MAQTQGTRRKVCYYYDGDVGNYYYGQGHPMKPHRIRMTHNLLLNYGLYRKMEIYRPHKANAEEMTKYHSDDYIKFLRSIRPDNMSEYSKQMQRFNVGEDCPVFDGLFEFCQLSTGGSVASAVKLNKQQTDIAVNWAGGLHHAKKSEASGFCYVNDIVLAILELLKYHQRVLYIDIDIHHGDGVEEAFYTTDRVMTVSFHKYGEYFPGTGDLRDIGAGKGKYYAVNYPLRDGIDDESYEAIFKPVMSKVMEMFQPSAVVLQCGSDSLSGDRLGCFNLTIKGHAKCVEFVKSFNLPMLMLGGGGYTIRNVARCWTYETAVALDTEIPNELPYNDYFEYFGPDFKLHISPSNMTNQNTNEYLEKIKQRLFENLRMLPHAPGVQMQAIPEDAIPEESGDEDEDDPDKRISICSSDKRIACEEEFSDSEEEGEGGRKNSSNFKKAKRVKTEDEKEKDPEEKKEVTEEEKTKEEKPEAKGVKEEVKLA
Chain of Human HDAC6 (Q9UBN7 whole entry): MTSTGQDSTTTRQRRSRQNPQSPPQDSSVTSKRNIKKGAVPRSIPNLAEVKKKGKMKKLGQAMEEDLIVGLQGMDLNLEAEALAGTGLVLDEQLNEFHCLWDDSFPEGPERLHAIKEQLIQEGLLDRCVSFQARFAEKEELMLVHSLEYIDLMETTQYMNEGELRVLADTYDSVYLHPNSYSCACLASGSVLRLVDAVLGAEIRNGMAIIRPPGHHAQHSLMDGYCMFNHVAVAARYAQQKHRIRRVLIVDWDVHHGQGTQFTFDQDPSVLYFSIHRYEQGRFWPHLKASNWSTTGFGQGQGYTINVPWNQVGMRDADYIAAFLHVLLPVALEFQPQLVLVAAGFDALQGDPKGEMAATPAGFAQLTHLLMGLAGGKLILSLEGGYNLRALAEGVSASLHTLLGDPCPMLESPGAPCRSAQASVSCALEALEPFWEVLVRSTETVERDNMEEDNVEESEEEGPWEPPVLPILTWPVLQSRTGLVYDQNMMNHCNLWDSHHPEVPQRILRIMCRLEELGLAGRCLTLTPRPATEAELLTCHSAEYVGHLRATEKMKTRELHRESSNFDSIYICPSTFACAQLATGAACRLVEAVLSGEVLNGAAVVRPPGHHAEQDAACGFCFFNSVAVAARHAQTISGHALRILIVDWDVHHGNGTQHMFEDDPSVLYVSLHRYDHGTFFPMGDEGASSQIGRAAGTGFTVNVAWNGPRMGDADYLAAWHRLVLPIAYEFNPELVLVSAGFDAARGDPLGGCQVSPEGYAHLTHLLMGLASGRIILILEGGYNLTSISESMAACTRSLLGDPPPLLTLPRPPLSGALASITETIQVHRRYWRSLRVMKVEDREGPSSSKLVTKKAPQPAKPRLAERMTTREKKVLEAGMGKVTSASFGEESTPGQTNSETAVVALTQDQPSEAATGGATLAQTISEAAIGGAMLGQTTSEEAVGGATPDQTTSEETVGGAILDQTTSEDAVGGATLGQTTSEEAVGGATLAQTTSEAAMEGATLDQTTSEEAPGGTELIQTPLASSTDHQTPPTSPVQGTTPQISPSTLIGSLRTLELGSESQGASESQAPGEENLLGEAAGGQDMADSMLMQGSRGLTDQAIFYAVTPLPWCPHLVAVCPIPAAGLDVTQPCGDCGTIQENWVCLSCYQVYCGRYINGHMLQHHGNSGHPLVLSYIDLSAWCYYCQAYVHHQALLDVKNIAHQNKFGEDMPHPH
Chain of Human HDAC8 (Q9BY41 whole entry): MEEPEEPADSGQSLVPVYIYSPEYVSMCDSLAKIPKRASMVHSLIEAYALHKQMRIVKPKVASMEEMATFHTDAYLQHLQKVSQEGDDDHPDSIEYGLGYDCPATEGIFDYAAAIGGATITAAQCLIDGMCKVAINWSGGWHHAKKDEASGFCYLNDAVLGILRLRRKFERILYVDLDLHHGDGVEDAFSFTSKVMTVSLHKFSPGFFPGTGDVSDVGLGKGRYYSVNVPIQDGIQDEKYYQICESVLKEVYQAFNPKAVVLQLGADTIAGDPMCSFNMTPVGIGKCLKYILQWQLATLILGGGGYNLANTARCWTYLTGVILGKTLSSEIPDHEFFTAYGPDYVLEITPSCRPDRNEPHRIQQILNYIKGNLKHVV

COc1cccc2c1C(=O)c1c(O)c3c(c(O)c1C2=O)C[C@@](O)(C(=O)CO)C[C@@H]3O[C@H]1C[C@H](N)[C@H](O)[C@H](C)O1 [Doxorubicin, reference compound]
IC50 (SK-HEP-1): 0.165 µM | IC50 (BT474): 4.5 µM | IC50 (MCF-7-FL): 2.37 µM | IC50 (HT-1080): 0.0256 µM | IC50 (143b): 0.0861 µM

O=c1[nH]cc(F)c(=O)[nH]1 [Example 5-FU, 5-FU, reference compound]
IC50 (HepG2): 3.28 µM | IC50 (MIAPACA-2): 7.61 µM | IC50 (HCT-116): 1.71 µM

O=C(NO)c1ccc(CNC(=O)c2[nH]c(-c3ccccc3)cc2-c2ccc(O)cc2)cc1 [Example 10, N-{4-[(hydroxyamino)carbonyl]benzyl}-3-(4-hydroxyphenyl)-5-phenyl-1H-pyrrole-2-carboxamide]
IC50 (Human HDAC6): 10.8 nM | IC50 (Human HDAC8): 340 nM | IC50 (Human HDAC3/NcoR2): 512 nM | IC50 [1]: 34 nM | IC50 (Human HDAC2): 1390 nM | IC50 [2]: 66 nM | IC50 (Human HDAC1): 473 nM | melting point: 139 to 141 °C

O=C(NO)c1ccc(CNC(=O)c2[nH]c(-c3ccoc3)cc2-c2ccc(F)cc2)cc1 [Example 12, 3-(4-fluorophenyl)-5-(3-furyl)-N-{4-[(hydroxyamino)carbonyl]benzyl}-1H-pyrrole-2-carboxamide]
IC50 (Human HDAC6): 42.8 nM | IC50 (Human HDAC8): 124 nM | IC50 (Human HDAC3/NcoR2): 451 nM | IC50 [1]: 46.4 nM | IC50 (Human HDAC2): 1150 nM | IC50 [2]: 56 nM | IC50 (Human HDAC1): 384 nM | melting point: 162 to 164 °C

COc1ccc(-c2cc(-c3ccccc3)[nH]c2C(=O)NCc2ccc(C(=O)Nc3ccccc3N)cc2)cc1 [Example 21, N-(4-{[(2-aminophenyl)amino]carbonyl}benzyl)-3-(4-methoxyphenyl)-5-phenyl-1H-pyrrole-2-carboxamide]
IC50 (Human HDAC6): > 5000 nM | IC50 (Human HDAC8): > 5000 nM | IC50 (Human HDAC3/NcoR2): 3900 nM | IC50 [1]: 7010 nM | IC50 (Human HDAC2): 1260 nM | IC50 [2]: > 10000 nM | IC50 (Human HDAC1): 390 nM | melting point: 142 to 143 °C (dec.)

COc1ccc(-c2cc(-c3ccccc3)[nH]c2C(=O)NCc2ccc(C(=O)Nc3ccccc3S)cc2)cc1 [Example 22, 3-(4-methoxyphenyl)-5-phenyl-N-(4-{[(2-sulfanylphenyl)amino]carbonyl}benzyl)-1H-pyrrole-2-carboxamide]
IC50 (Human HDAC6): > 5000 nM | IC50 (Human HDAC8): > 5000 nM | IC50 (Human HDAC3/NcoR2): > 5000 nM | IC50 [1]: > 5000 nM | IC50 (Human HDAC2): > 5000 nM | IC50 [2]: > 10000 nM | IC50 (Human HDAC1): > 5000 nM | melting point: 134 to 135 °C

COc1ccc(-c2cc(-c3ccccc3)[nH]c2C(=O)NCc2ccc(C(=O)Nc3ncccn3)cc2)cc1 [Example 26, 3-(4-methoxyphenyl)-5-phenyl-N-{4-[(pyrimidin-2-ylamino)carbonyl]benzyl}-1H-pyrrole-2-carboxamide]
IC50 (Human HDAC6): > 5000 nM | IC50 (Human HDAC8): > 5000 nM | IC50 (Human HDAC3/NcoR2): > 5000 nM | IC50 [1]: > 5000 nM | IC50 (Human HDAC2): > 5000 nM | IC50 (Human HDAC1): > 5000 nM | melting point: 190 to 191 °C

CCc1c2c(nc3ccc(OC(=O)N4CCC(N5CCCCC5)CC4)cc13)-c1cc3c(c(=O)n1C2)COC(=O)[C@]3(O)CC [Irinotecan, reference compound]
IC50 (Colo205): 16.6 µM

CC(=O)O[C@H]1C(=O)[C@@]2(C)[C@H]([C@H](OC(=O)c3ccccc3)[C@]3(O)C[C@H](OC(=O)[C@H](O)[C@@H](NC(=O)c4ccccc4)c4ccccc4)C(C)=C1C3(C)C)[C@]1(OC(C)=O)CO[C@@H]1C[C@@H]2O [Paclitaxel, reference compound]
IC50 (MCF-7-218): 0.285 µM

Source: patent US8685992B2, “Histone deacetylase inhibitors based simultaneously on trisubstituted 1H-pyrroles and aromatic and heteroaromatic spacers” (Universidad del País Vasco, priority 2009, dated 2014)
